# In patent publication EP2767273A1, “Death-associated protein kinases, inhibitors and activators thereof for use in pharmaceutical compositions and in predictive medicine” (UNIVERSITÄTSKLINIKUM ERLANGEN, priority 2013, dated 2014):
# Assays:
# IL-6 [1] = assay: IL-6 secretion in HCEC cell culture supernatants (ELISA); assay type: cell-based, human; settings: HCEC cells
# Experimental: (§1) HCEC cells were kindly provided by Professor Steinberg Pablo (Institute for Food Toxicology and Analytical Chemistry, University of Veterinary Medicine Hannover, Germany) and maintained as previously described.^31 After 24 hours of seeding, cells were either stimulated with 0.66 ng/ml TNF (ImmunoTools) for various time points. For inhibitor experiments cells were pre-incubated for one to two hours with the corresponding inhibitors.
# IL-6 and IL-8 secretion was analyzed by ELISA according to the manufacturer's instructions (BD Biosciences; Heidelberg, Germany). […] After blocking (300 µl 3% BSA in PBS, 2 hours, RT) and washing (0.1% Tween in PBS, (PBS-T), 100 µl of undiluted or diluted supernatant was added and incubated (2 hours, RT or overnight 4°C). Thereafter, wells were washed and incubated (1.5 hours, RT) with detection antibody (1:250 diluted in 1% BSA in PBS-T) + enzyme reagent (Streptavidin-horseradish peroxidase conjugate; 1:250 diluted in detection antibody). After washing, TMB (1:1) substrate was added to each well and incubated in a dark for 20-30 minutes. Reaction was stopped with stop solution (100 µl 1 M H2SO4) and absorption was measured using spectrophotometer (Victor X3, Perkin-elmer) at a wavelength of 450 nm with a wavelength correction at 570 nm.
# STAT3 = STAT3 Y705 phosphorylation in HCEC cells (Western blotting); assay type: cell-based, human
# Experimental: as §1
# (§2) Protein concentration was measured in duplicates using Bio-rad Dc Protein Assay (BioRad Laboratories, Hercules, CA). Equal amounts of protein were separated by 10% or 12% SDS-PAGE using Laemmli buffer system. Proteins were transferred electrophoretically to nitrocellulose membrane (Millipore Corporation, Billerica, MA, USA) and detected as recently described^33 using following antibodies, anti-DAPK (BD Transduction Laboratories, Lexington NY), anti-pDAPK^S308 (Sigma), anti-STAT3, anti-pSTAT3^γ705, anti-caspase3 (Cell Signaling Technology Inc.), anti-ß-actin (Sigma), or anti-GAPDH (Abnova GmbH, Germany).
# DAPK [2] = assay: DAPK mRNA expression in HCEC cells (real time RT-PCR); assay type: cell-based, human; settings: for DAPK mRNA enhanced: 7 µM Stattic + TNF, relative to TNF treatment
# Experimental: as §1
# Expression of IL-6, IL-8, and DAPK mRNA were analyzed by real time RT-PCR. RNA isolation (mRNeasy RNA isolation kit) and cDNA synthesis (Quantitect reverse transcriptase kit) were performed according to the manufacturer's instructions (Qiagen, Hilden, Germany). 1 µl of cDNA was amplified in a thermal cycler (Biorad CFX-96) with corresponding primers in a total volume of 25 µl using Quantifast SYBR green kit (Qiagen) under the following conditions: 95°C for 5 minutes followed by 26-40 cycles of 95°C for 10 s and 60°C for 30 s. The following primers were used, forward and reverse respectively: DAPK, 5'-[…]-3' and 5'-GATCCCGAGTGGCCAAA-3'; IL-6, 5'-[…]-3' and 5'-[…]-3'; IL-8, 5'-[…]-3' and 5'-[…]-3'; ß2microglobulin (house-keeping gene), 5'-[…]-3' and 5'-[…]-3'; murine DAPK, 5'-[…]-3' and 5'-[…]-3'; murine GAPDH (house-keeping gene), 5'-[…] -3' and 5'-[…] -3'. The results were expressed as fold induction compared to unstimulated cells after normalising to house-keeping gene. All primers were purchased from metabion (metabion international AG, Martinsried, Germany).
# IL-6 [3] = assay: IL-6 mRNA expression in HCEC cells (real time RT-PCR); assay type: cell-based, human; settings: AG490
# Experimental: as §1
# Expression of IL-6, IL-8, and DAPK mRNA were analyzed by real time RT-PCR. RNA isolation (mRNeasy RNA isolation kit) and cDNA synthesis (Quantitect reverse transcriptase kit) were performed according to the manufacturer's instructions (Qiagen, Hilden, Germany). 1 µl of cDNA was amplified in a thermal cycler (Biorad CFX-96) with corresponding primers in a total volume of 25 µl using Quantifast SYBR green kit (Qiagen) under the following conditions: 95°C for 5 minutes followed by 26-40 cycles of 95°C for 10 s and 60°C for 30 s. […] The results were expressed as fold induction compared to unstimulated cells after normalising to house-keeping gene. […]
# DAPK [4] = assay: DAPK protein expression/activation in HCEC cells (Western blotting); assay type: cell-based, human
# Experimental: as §1, §2
# Silencing of DAPK expression in HCEC cells was performed by the siRNA technique according to the manufacturer's instructions (Dharmacon, Chicago, IL, USA). […] At the end of the incubation period supernatants and cells were harvested and stored at -80°C until analyzed further. The knockdown efficiency was determined by Western blotting.
# AOM-DSS tumors = assay: AOM+DSS mouse model of colitis-associated tumors, treatment with DAPK-inhibitor; assay type: in vivo, mice
# Experimental: as §2
# Experimental colitis-associated tumorigenesis was performed as previously described.^43 In brief, 10mg/kg Azoxymethane (AOM; Sigma) was injected intraperitoneally into 6-8 week old C57BL/6J mice, followed by 3 cycles of DSS in drinking water. Each DSS-cycle was composed of DSS (2.5 % (w/v); MP Biomedicals) in drinking water for 7 days, followed by a recovery phase with regular drinking water for 14 days. All tumors were harvested at day 65-70.
# [5] = AOM-DSS tumors, treated mice vs untreated control mice
smiles,measurement,setting,value
"N#C/C(=C\c1ccc(O)c(O)c1)C(=O)NCc1ccccc1 [AG490, Tyrphostin AG 490]",TNF-induced IL-6 secretion down-regulated,IL-6 [1]; AG490,50%
same,pSTAT3Y705 levels decreased,STAT3; 20 µM AG490 prior to TNF treatment,35%
same,DAPK mRNA expression,"DAPK [2]; 20 µM AG490 pre-treatment + TNF, after 72 hours",3.3 fold
same,TNF-induced IL-6 mRNA expression down-regulated,IL-6 [3],50%
same,TNF-induced DAPK protein expression,DAPK [4]; 20 µM AG490 + TNF,elevated
"O=C1OC(c2ccccc2)=N/C1=C\c1cccnc1 [DAPK inhibitor, (4Z)-2-phenyl-4-(pyridine-3-ylmethylidene)-4,5-dihydro-1,3-oxazol-5-one]",TNF-induced IL-6 secretion,"IL-6 [1]; 0.66 ng/ml TNF, 10 µM DAPK inhibitor, after 6 and 24 hours",significantly increased
same,STAT3Y705 phosphorylation,"STAT3; 0.66 ng/ml TNF, 10 µM DAPK inhibitor, after 24, 48, and 72 hours",enhanced
same,tumors in the gut (endoscopy),"AOM-DSS tumors; AOM-DSS mice, with vs without DAPK-inhibitor",less and smaller tumors
same,"tumor growth, atypia and architecture (immunohistochemical evaluation)","AOM-DSS tumors; AOM-DSS mice, untreated controls: non-invasive growth, low grade atypia, simple and tubular architecture","invasively growing, showed high grade atypia, and a complex, cribiform architecture"
same,NFκB inhibitor plκß in tumors (Western Blotting),AOM-DSS tumors; [5],up-regulated
same,tumor suppressor p53 in tumors (Western Blotting),AOM-DSS tumors; [5],down-regulated
O=[N+]([O-])c1ccc2c(c1)S(=O)(=O)C=C2 [Stattic],TNF-induced STAT3Y705 phosphorylation down-regulated,STAT3; 7 µM Stattic pre-treatment,up to 45%
same,DAPK mRNA enhanced,DAPK [2]; after 48 hours,1-5 fold
same,DAPK mRNA enhanced,DAPK [2]; after 72 hours,2.8 fold
same,DAPK protein,DAPK [4]; 7 µM Stattic + TNF,enhanced
